Laboratory results reported in patent publication US9969723B2, “3-(4-(benzyloxy)phenyl)hex-4-ynoic acid derivative, method of preparing same and pharmaceutical composition for preventing and treating metabolic disease including same as effective ingredient” (HYUNDAI PHARM CO., LTD, priority 2014, dated 2018).
pEC50: −log10 of the molar value. Read-outs that look alike come from different tables or passages of the source.

What was measured:
CYP2D6 = CYP2D6 (Homo sapiens (Human), UniProt P10635); assay: CYP inhibition (Invitrogen Vivid kit); type: in vitro ADME; details: probe Vivid CYP450 substrate, read-out: CYP inhibition (%) 2D6
Excerpt: (§1) CYP is the enzyme involved in drug metabolism. So, the inhibition of this enzyme can change the prediction of dose of a drug and toxicity caused by the co-treatment with other drugs. Therefore, the inventors measured the inhibitory effect of the compounds of Examples of the invention on endogenous CYP3A4, CYP2C9, CYP1A2, CYP2D6, and CYP2C19. At this time, Invitrogen (P2862) was used as the CYP2D6 inhibition kit, and BD GENTEST (459100, 459300, 459400, 459500) was used as the CYP1A2, CYP2C9, CYP2C19, and CYP3A4 inhibition kit. To prepare the Invitrogen kit, the test sample was diluted in distilled water at 2.5× of the final experimental concentration.
P450 BACULOSOMES® reagent and reproducer (100×) included in Invitrogen kit were diluted in Vivid® CYP450 reaction buffer (2×) at the concentration that matched the target CYP450. The prepared 2.5× sample (80 μL) and the diluted P450 BACULOSOMES® reagent mixture (100 μL) were mixed in each well of U-bottom 96-well plate, followed by pre-culture for 20 minutes. Vivid® CYP450 substrate and NADP+ (100×) were diluted in Vivid® CYP450 reaction buffer (2×) at the concentration that matched the target CYP450 and the substrate. Upon completion of the pre-culture, substrate-NADP (nicotinamide adenine dinucleotide phosphate) mixed solution (20 μL) was added thereto, followed by reaction for 1 hour. Upon completion of the reaction, the reactant was transferred onto the white plate, and then fluorescence was measured with a microplate reader (CYP 2D6 excitation wavelength: 400 nm, absorption wavelength: 502 nm). […]

CYP1A2 = CYP1A2 (Homo sapiens (Human), UniProt P05177); assay: CYP inhibition (BD GENTEST kit); type: in vitro ADME; details: pH 7.4
Method: as §1, with “At this time, Invitrogen (P2862) was used as the CYP2D6 inhibition kit, and BD GENTEST (459100, 459300, 459400, 459500) was used as the CYP1A2, CYP2C9, CYP2C19, and CYP3A4 inhibition kit.” left out
(§2) The test sample for BD GENTEST kit was diluted in acetonitrile at 50× of the final experimental concentration. NADPH-coenzyme mixture was prepared by diluting the coenzyme, G6PDH, and regulatory protein included in the kit with distilled water at the concentration instructed by the kit. The prepared 50× sample (4 μL) and the NADPH-coenzyme mixture (96 μL) were mixed in each well of U-bottom 96-well plate, followed by pre-culture for 10 minutes in a 37° C. incubator. Enzyme/substrate mixed solution was prepared by diluting the buffer (0.5 M potassium phosphate, pH 7.4), each CYP450 enzyme/substrate mixed solution included in the kit with distilled water at the instructed concentration. Upon completion of the pre-culture, 100 μL of the enzyme/substrate mixed solution was added in each well of the plate, followed by culture in a 37° C. incubator for 15 minutes (CYP 1A2), 30 minutes (CYP 3A4 and CYP 2C19) or 1 and half hours (CYP 2C9). […] The values obtained above were converted into % as the inhibition rate of the sample by the value of the non-treated group.

CYP2C9 = CYP2C9 (Homo sapiens (Human), UniProt P11712); assay: CYP inhibition (BD GENTEST kit); type: in vitro ADME; details: pH 7.4, read-out: CYP inhibition (%) 2C9
Method: as §1, with “At this time, Invitrogen (P2862) was used as the CYP2D6 inhibition kit, and BD GENTEST (459100, 459300, 459400, 459500) was used as the CYP1A2, CYP2C9, CYP2C19, and CYP3A4 inhibition kit.” left out
as §2

CYP2C19 = CYP2C19 (Homo sapiens (Human), UniProt P33261); assay: CYP inhibition (BD GENTEST kit); type: in vitro ADME; details: pH 7.4, read-out: CYP inhibition (%) 2C19
Method: as §1, with “At this time, Invitrogen (P2862) was used as the CYP2D6 inhibition kit, and BD GENTEST (459100, 459300, 459400, 459500) was used as the CYP1A2, CYP2C9, CYP2C19, and CYP3A4 inhibition kit.” left out
as §2

GPR40 [1] = molecular target: T1, GPR40 (Homo sapiens (Human), UniProt O14842); assay: GPR40 protein activity by intracellular calcium concentration (Fluo-4, Flexstation 3) in transfected HEK-293 cells; type: cell-based; details: HEK-293 cells transfected with human GPR40, intracellular calcium
Method: The GPR40 protein activity according to the novel 3-(4-(benzyloxy)phenyl)hex-4-inoic acid derivative of the present invention was measured by investigating the changes in intracellular calcium concentration affected by the GRP40 activation. First, HEK-293 cells were transfected with human GPR40 DNA (Origene, RC218370) by using Fugene HD (Promega, E2311). […] 24 hours later, the cell culture medium was replaced with Dulbecco's Modified Eagle Medium (DMEM, 50 μl/well) supplemented with 1% fetal bovine serum (FBS). To measure the calcium concentration, 50 μl of Fluo-4 reagent (Invitrogen, F10471) was added to each well, followed by culture in a 37° C. incubator for 2 hours. […] 2 hours after the culture began, those prepared samples were automatically injected to the cells by using Flexstation 3 (Molecular Devices). Then, intracellular calcium concentration was measured for 120 seconds by using SoftMax® Pro software. At this time, dimethylsulfoxide (DMSO) was injected to the cells for the non-treated group, followed by measuring the calcium concentration therein. The GPR40 protein activity was calculated by the below mathematical formula 1 with the results of calcium concentration measurement. GPR40 activity=(intracellular calcium concentration increased by the sample)/(intracellular calcium concentration of the non-treated group)×100 [Mathematical Formula 1]

CYP3A4 = CYP3A4 (Homo sapiens (Human), UniProt P08684); assay: CYP inhibition (BD GENTEST kit); type: in vitro ADME; details: pH 7.4, read-out: CYP inhibition (%) 3A4
Excerpt: as §1
The test sample for BD GENTEST kit was diluted in acetonitrile at 50× of the final experimental concentration. NADPH-coenzyme mixture was prepared by diluting the coenzyme, G6PDH, and regulatory protein included in the kit with distilled water at the concentration instructed by the kit. The prepared 50× sample (4 μL) and the NADPH-coenzyme mixture (96 μL) were mixed in each well of U-bottom 96-well plate, followed by pre-culture for 10 minutes in a 37° C. incubator. Enzyme/substrate mixed solution was prepared by diluting the buffer (0.5 M potassium phosphate, pH 7.4), each CYP450 enzyme/substrate mixed solution included in the kit with distilled water at the instructed concentration. Upon completion of the pre-culture, 100 μL of the enzyme/substrate mixed solution was added in each well of the plate, followed by culture in a 37° C. incubator for 15 minutes (CYP 1A2), 30 minutes (CYP 3A4 and CYP 2C19) or 1 and half hours (CYP 2C9). Upon completion of the reaction, the reactant was transferred onto the white plate, and then fluorescence was measured with a microplate reader (CYP 1A2 and CYP 2C19 excitation wavelength: 410 nm, absorption wavelength: 460 nm; CYP 2C9 and CYP 3A4 excitation wavelength: 409 nm, absorption wavelength: 530 nm). The values obtained above were converted into % as the inhibition rate of the sample by the value of the non-treated group.

GPR40 [2] = molecular target: T1, GPR40; assay: Calcium flux GPCR agonist assay (Millipore GPCR profiler, FLIPR TETRA)
Method: The compounds of Examples of the invention dissolved in DMSO (dimethyl sulfoxide), PBS (phosphate buffered saline), and DW (distilled water), etc, were diluted three-times with EMD Millipore's GPCR profiler assay buffer. […] Each well was filled with EMD Millipore's GPCR profiler assay buffer. The said EMD Millipore's GPCR profiler assay buffer was HBSS (Hanks Balanced Salt Solution) containing 20 mM HEPES (4-(2-hydroxyethyl)-1-piperazineethanesulfonic acid) and 2.5 mM Probenecid (4-(dipropylsulfamoyl)benzoic acid), whose pH was regulated as 7.4.
The compounds of Examples were duplicated at each concentration. […] Agonist assay was performed by using FLIPR^TETRA. Fluorescence and luminescence baseline were measured. […] To measure the activity of those compounds of Examples, GPCR activity assay was performed for 180 seconds.
When the assay data were not satisfactory, an additional experiment was performed.
All the concentration dependent graphs were made by using GraphPad Prism. The graph was modified by Sigmoidal dose response.

[3] = P450 BACULOSOMES reagent (Invitrogen Vivid CYP2D6 kit P2862)
[4] = CYP2C9 enzyme of BD GENTEST inhibition kit
[5] = CYP2C19 enzyme of BD GENTEST inhibition kit
[6] = CYP3A4 enzyme of BD GENTEST inhibition kit
[7] = CYP2D6 P450 BACULOSOMES reagent (Invitrogen kit P2862)
[8] = CYP2C9 enzyme of the BD GENTEST CYP2C9 inhibition kit
[9] = CYP2C19 enzyme of the BD GENTEST CYP2C19 inhibition kit
[10] = CYP3A4 enzyme of the BD GENTEST CYP3A4 inhibition kit

Chain of CYP2D6 (P10635 whole entry): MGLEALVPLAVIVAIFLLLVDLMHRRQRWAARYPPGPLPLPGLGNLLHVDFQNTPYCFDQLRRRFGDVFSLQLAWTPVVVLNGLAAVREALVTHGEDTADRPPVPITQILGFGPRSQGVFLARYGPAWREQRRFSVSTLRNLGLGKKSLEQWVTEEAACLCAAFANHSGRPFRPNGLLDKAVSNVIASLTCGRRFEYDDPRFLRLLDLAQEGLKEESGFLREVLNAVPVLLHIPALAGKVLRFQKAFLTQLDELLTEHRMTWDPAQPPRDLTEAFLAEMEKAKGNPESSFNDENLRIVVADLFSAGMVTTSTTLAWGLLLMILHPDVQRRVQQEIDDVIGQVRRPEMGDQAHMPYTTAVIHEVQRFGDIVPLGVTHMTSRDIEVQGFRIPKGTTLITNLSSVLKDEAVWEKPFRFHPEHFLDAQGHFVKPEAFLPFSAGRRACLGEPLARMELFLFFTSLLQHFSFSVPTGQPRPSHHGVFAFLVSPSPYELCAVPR
Chain of CYP2C9 (P11712 whole entry): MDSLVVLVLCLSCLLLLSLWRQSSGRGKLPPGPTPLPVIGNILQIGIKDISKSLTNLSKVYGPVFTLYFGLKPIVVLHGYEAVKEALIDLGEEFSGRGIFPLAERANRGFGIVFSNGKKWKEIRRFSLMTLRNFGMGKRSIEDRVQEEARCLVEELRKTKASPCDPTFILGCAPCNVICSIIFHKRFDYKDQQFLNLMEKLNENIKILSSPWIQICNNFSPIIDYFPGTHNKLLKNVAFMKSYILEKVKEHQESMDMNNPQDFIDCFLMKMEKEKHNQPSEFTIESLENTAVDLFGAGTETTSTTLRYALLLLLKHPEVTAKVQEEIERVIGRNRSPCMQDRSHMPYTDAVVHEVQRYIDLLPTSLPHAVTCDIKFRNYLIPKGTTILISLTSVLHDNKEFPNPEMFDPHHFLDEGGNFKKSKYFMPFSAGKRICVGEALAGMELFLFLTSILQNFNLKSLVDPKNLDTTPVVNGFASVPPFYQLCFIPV
T1 sequence (O14842 whole entry): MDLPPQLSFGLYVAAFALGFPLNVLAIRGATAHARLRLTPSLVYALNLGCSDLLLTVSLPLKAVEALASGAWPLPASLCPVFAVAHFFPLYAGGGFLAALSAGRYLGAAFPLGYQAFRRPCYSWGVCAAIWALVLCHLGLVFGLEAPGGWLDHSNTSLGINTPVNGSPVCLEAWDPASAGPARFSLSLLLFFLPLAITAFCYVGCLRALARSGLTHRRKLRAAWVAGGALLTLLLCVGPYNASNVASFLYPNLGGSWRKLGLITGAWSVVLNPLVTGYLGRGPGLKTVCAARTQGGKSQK
Chain of CYP1A2 (P05177 whole entry): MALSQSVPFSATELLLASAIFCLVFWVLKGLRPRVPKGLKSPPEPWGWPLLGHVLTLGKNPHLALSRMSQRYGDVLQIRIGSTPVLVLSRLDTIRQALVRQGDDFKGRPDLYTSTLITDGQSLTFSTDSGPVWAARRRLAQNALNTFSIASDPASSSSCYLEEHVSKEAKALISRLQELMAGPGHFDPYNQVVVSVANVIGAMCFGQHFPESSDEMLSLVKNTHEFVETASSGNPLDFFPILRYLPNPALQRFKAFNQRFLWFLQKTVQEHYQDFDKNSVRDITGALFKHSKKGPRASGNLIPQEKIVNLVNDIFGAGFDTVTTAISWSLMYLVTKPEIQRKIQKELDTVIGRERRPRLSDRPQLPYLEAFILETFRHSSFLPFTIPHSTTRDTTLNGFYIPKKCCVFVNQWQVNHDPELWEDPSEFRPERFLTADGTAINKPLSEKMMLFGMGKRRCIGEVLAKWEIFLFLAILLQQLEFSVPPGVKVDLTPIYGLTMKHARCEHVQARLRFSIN
Chain of CYP2C19 (P33261 whole entry): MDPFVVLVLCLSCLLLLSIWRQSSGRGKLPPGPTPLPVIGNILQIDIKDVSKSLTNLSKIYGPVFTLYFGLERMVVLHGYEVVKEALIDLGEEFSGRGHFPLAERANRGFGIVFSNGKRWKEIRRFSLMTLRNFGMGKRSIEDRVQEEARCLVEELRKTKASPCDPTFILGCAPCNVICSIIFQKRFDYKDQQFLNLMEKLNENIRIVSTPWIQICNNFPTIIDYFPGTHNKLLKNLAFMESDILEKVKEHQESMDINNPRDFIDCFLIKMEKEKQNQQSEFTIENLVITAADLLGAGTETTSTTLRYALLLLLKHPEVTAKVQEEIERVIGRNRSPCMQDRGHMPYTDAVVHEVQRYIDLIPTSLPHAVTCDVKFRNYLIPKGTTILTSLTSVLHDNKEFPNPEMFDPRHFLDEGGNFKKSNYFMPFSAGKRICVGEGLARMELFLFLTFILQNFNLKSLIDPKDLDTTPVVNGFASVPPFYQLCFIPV
Chain of CYP3A4 (P08684 whole entry): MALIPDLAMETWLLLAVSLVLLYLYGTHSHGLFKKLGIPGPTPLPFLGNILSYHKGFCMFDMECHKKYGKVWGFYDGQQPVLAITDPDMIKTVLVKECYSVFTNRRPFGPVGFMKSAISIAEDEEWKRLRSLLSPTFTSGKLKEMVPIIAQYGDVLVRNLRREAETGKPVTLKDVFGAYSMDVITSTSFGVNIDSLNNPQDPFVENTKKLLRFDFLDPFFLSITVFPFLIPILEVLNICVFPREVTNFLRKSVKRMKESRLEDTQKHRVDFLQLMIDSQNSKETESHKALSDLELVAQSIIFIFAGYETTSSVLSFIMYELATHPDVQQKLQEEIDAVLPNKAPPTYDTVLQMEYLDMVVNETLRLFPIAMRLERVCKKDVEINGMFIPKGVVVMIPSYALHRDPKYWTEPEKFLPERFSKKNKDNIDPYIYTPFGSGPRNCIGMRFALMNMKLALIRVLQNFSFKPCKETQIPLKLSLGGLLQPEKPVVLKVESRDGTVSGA

SMILES	inhibition at 1 h, 10 µM (CYP2D6; [3])	inhibition at 15 min, 10 µM (CYP1A2)	inhibition at 1.5 h, 10 µM (CYP2C9; [4])	inhibition at 30 min, 10 µM (CYP2C19; [5])	pEC50 (GPR40 [1]; read-out: EC50)	inhibition at 30 min, 10 µM (CYP3A4; [6])	inhibition at 1 h, 10 µM (CYP2D6; [7])	inhibition at 1.5 h, 10 µM (CYP2C9; [8])	inhibition at 30 min, 10 µM (CYP2C19; [9])	inhibition at 30 min, 10 µM (CYP3A4; [10])	pEC50 (GPR40 [2])	pEC50 (GPR40 [1]; values in text, read-out: EC50, concentration promoting activation of GPR40 protein by 50%)
CC#C[C@@H](CC(=O)O)c1ccc(OCc2ccc(CN3CCN(c4ccc(OCOC)cc4)CC3)cc2)cc1 [Example 29, (S)-3-(4-(4-((4-(4-(methoxymethoxy)phenyl)piperazine-1-yl)methyl)benzyloxy)phenyl)hex-4-ynoic acid]	18.2%	0.7%	26.7%	9.7%	6.52 to 6.70	0%	–	–	–	–	–	–
CC#CC(CC(=O)O)c1ccc(OCc2cccc(C3=CCC(=O)CC3)c2)cc1 (stereo not shown) [Example 4, 3-(4-(3-(4-oxocyclohex-1-enyl)benzyloxy)phenyl)hex-4-ynoic acid]	19.3%	0%	41.5%	45.4%	< 6.52	35%	–	–	–	–	–	–
CC#C[C@@H](CC(=O)O)c1ccc(OCc2ccc(CN3CCC4(C=Cc5ccccc54)CC3)cc2)cc1 [Comparative Example 2, (3S)-3-(4-{[4-(1′H-spiro[indene-1,4′-piperidine]-1′-ylmethyl)benzyl]oxy}phenyl)hex-4-inoic acid, reference compound]	63.2%	0%	43.9%	34.5%	< 6.52	42%	–	–	–	–	–	–
CC#CC(CC(=O)O)c1ccc(OCc2ccc(C3=CCC4(CC3)OCCO4)cc2)cc1 (stereo not shown) [Example 3]	–	0%	–	–	< 6.52	–	6%	21.1%	19.4%	33.1%	–	–
CC#C[C@@H](CC(=O)O)c1ccc(OCc2ccc(CN3CCc4ccccc4C3)cc2)cc1 [Example 21, (S)-3-(4-(4-((3,4-dihydroisoquinoline-2(1H)-yl)methyl)benzyloxy)phenyl)hex-4-ynoic acid]	16.1%	4%	75.9%	46.5%	6.52 to 6.70	27.3%	–	–	–	–	–	–
CC#C[C@@H](CC(=O)O)c1ccc(OCc2ccc(CN3CCC(c4ccccc4)CC3)cc2)cc1 [Example 26, (S)-3-(4-(4-((4-phenylpiperidine-1-yl)methyl)benzyloxy)phenyl)hex-4-ynoic acid]	2.3%	0.7%	31.5%	13.2%	< 6.52	14.1%	–	–	–	–	–	–
O=C(O)CCc1ccc(NCc2cccc(Oc3ccccc3)c2)cc1 [Comparative Example 3, 4-(3-phenoxybenzylamino)phenylpropionic acid, reference compound]	–	–	–	–	–	–	–	–	–	–	7.57	–
CC#C[C@@H](CC(=O)O)c1ccc(OCc2ccc(CN3CCN(c4ccc(OC)cc4)CC3)cc2)cc1 [Example 40, (S)-3-(4-(4-((4-(4-methoxyphenyl)piperazine-1-yl)methyl)benzyloxy)phenyl)hex-4-ynoic acid]	17.9%	9.7%	18.4%	19.5%	6.52 to 6.70	0%	–	–	–	–	–	–
CC#C[C@@H](CC(=O)O)c1ccc(OCc2ccc(CN3Cc4ccccc4C3)cc2)cc1 [Example 38, L-lysine (S)-3-(4-(4-(isoindoline-2-ylmethyl)benzyloxy)phenyl)hex-4-ynoate]	–	2.2%	–	–	–	–	15.6%	34.4%	13.2%	18.1%	–	–
CC#C[C@@H](CC(=O)O)c1ccc(OCc2ccc(CN3CCN(c4ccc(OCCCS(C)(=O)=O)cc4)CC3)cc2)cc1 [Example 36, (S)-3-(4-(4-((4-(4-(3-(methylsulfonyl)propoxy)phenyl)piperazine-1-yl)methyl)benzyloxy)phenyl)hex-4-ynoic acid]	1.8%	16.6%	0%	10.8%	< 6.52	11.5%	–	–	–	–	–	–
CC#C[C@@H](CC(=O)O)c1ccc(OCc2cccc(C3=CCC4(CC3)OCCO4)c2)cc1 [Example 7, (3S)-3-(4-(3-(1,4-dioxaspiro[4,5]dec-7-en-8-yl)benzyloxy)phenyl)hex-4-ynoic acid]	13.9%	4.3%	47.1%	3.7%	> 6.70	15.5%	–	–	–	–	–	> 6.70
